Tests used:
Type in all cases: in vivo
kochia (Kochia scoparia) = assay: Test C greenhouse herbicide test, postemergence; details: Postemergence
How it was run: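 Ratings are visual scores from 0 (no effect) to 100 (complete control), made against controls 13–15 d after treatment. Postemergence sprays were applied in the greenhouse to plants 2–18 cm tall (1- to 4-leaf stage) in peat-moss/vermiculite potting medium.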

[1] = system: foxtail, giant (giant foxtail, Setaria faberii); assay: Test C greenhouse herbicide test, pre- and postemergence; details: Postemergence
How it was run: (§1)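 Two application timings: at sowing into a soil/sand blend, and on 2–18 cm seedlings in peat-vermiculite potting mix. A non-phytotoxic, surfactant-containing solvent carried the compounds. Plants were compared with controls and rated visually on 0–100 after 13–15 d.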

[2] = system: morningglory (Ipomoea coccinea); assay: as above
How it was run: as §1

corn (Zea mays) = assay: as above
How it was run: as §1

[3] = system: pigweed (Amaranthus retroflexus); assay: as above
How it was run: as §1

[4] = system: ryegrass, Italian (Italian ryegrass, Lolium multiflorum); assay: as above
How it was run: as §1

soybean (Glycine max) = assay: as above
How it was run: as §1

[5] = system: blackgrass (Alopecurus myosuroides); assay: as above
How it was run: as §1

[6] = system: ragweed (common ragweed, Ambrosia elatior); assay: as above
How it was run: as §1

[7] = system: lambsquarters (Chenopodium album); assay: as above
How it was run: as §1

[8] = system: crabgrass, large (large crabgrass, Digitaria sanguinalis); assay: as above
How it was run: as §1

[9] = system: nutsedge, yellow (yellow nutsedge, Cyperus esculentus); assay: as above
How it was run: as §1

[10] = system: waterhemp (common waterhemp, Amaranthus rudis); assay: as above
How it was run: as §1

[11] = system: johnsongrass (Sorghum halepense); assay: as above
How it was run: as §1

[12] = system: wheat (winter wheat, Triticum aestivum); assay: as above
How it was run: as §1

[13] = system: oilseed rape (Brassica napus); assay: as above
How it was run: as §1

[14] = 31 g ai/ha, scale 0 to 100 (0 no effect, 100 complete control)
[15] = 125 g ai/ha, scale 0 to 100, 0 is no effect, 100 is complete control
[16] = 250 g ai/ha, scale 0 to 100, 0 no effect, 100 complete control, 13 to 15 d
[17] = Postemergence, 31 g ai/ha, scale 0 to 100 (0 no effect, 100 complete control)
[18] = Postemergence, 125 g ai/ha, scale 0 to 100, 0 is no effect, 100 is complete control
[19] = Postemergence, 250 g ai/ha, scale 0 to 100, 0 no effect, 100 complete control, 13 to 15 d
[20] = Preemergence, 31 g ai/ha, scale 0 to 100, 0 is no effect, 100 is complete control
[21] = Preemergence, 62 g ai/ha, scale 0 to 100, 0 is no effect, 100 is complete control
[22] = Preemergence, 125 g ai/ha, scale 0 to 100, 0 is no effect, 100 is complete control
[23] = Preemergence, 250 g ai/ha, scale 0 to 100 (0 no effect, 100 complete control)
[24] = postemergence, 62 g ai/ha, scale 0 to 100, 0 no effect, 100 complete control

**Q.** `Cc1sc2ccc(Cl)cc2c1-c1c(OS(C)(=O)=O)c(Cl)nn(C)c1=O` [Compound 114] was tested. Which “Plant response rating, Kochia” value (kochia (Kochia scoparia); [14]) did it give?
**A.** 30

**Q.** What about the “Plant response rating, Kochia” value (kochia (Kochia scoparia); [15]) of the same compound?
**A.** 90

**Q.** What about the “Plant response rating, Kochia” value (kochia (Kochia scoparia); [16]) of the same compound?
**A.** 95

**Q.** What about the “Plant response rating, Foxtail, Giant” value [1, 14] of the same compound?
**A.** 10

**Q.** What about the “Plant response rating, Foxtail, Giant” value [1, 15] of the same compound?
**A.** 50

**Q.** What about the “Plant response rating, Foxtail, Giant” value [1, 16] of the same compound?
**A.** 85

**Q.** What about the “Plant response rating, Morningglory” value [2, 17] of the same compound?
**A.** 95

**Q.** And the “Plant response rating, Morningglory” value [2, 18]?
**A.** 100

**Q.** And the “Plant response rating, Morningglory” value [2, 19]?
**A.** 100

**Q.** What about the “Plant response rating, Morningglory” value [2, 20] of the same compound?
**A.** 25

**Q.** And the “Plant response rating, Morningglory” value [2, 21]?
**A.** 55

**Q.** What about the “Plant response rating, Morningglory” value [2, 22] of the same compound?
**A.** 75

**Q.** And the “Morningglory plant response rating” value [2, 23]?
**A.** 90

**Q.** And the “Plant response rating, Corn” value (corn (Zea mays); [17])?
**A.** 0

**Q.** And the “Plant response rating, Corn” value (corn (Zea mays); [18])?
**A.** 0

**Q.** What about the “Plant response rating, Corn” value (corn (Zea mays); [19]) of the same compound?
**A.** 0

**Q.** What about the “Plant response rating, Corn” value (corn (Zea mays); [20]) of the same compound?
**A.** 0

**Q.** What about the “Plant response rating, Corn” value (corn (Zea mays); [21]) of the same compound?
**A.** 5

**Q.** What about the “Plant response rating, Corn” value (corn (Zea mays); [22]) of the same compound?
**A.** 5

**Q.** What about the “Corn plant response rating” value (corn (Zea mays); [23]) of the same compound?
**A.** 5

**Q.** What about the “Corn plant response rating” value (corn (Zea mays); [24]) of the same compound?
**A.** 0

**Q.** And the “Plant response rating, Pigweed” value [3, 17]?
**A.** 80

**Q.** What about the “Plant response rating, Pigweed” value [3, 18] of the same compound?
**A.** 95

**Q.** What about the “Plant response rating, Pigweed” value [3, 19] of the same compound?
**A.** 95

**Q.** And the “Plant response rating, Pigweed” value [3, 20]?
**A.** 98

**Q.** And the “Plant response rating, Pigweed” value [3, 21]?
**A.** 90

**Q.** What about the “Plant response rating, Pigweed” value [3, 22] of the same compound?
**A.** 100

**Q.** What about the “Pigweed plant response rating” value [3, 23] of the same compound?
**A.** 100

**Q.** What about the “Plant response rating, Ryegrass, Italian” value [4, 17] of the same compound?
**A.** 60

**Q.** What about the “Plant response rating, Ryegrass, Italian” value [4, 18] of the same compound?
**A.** 80

**Q.** What about the “Plant response rating, Ryegrass, Italian” value [4, 19] of the same compound?
**A.** 95

**Q.** What about the “Plant response rating, Ryegrass, Italian” value [4, 20] of the same compound?
**A.** 40

**Q.** And the “Plant response rating, Ryegrass, Italian” value [4, 21]?
**A.** 85

**Q.** And the “Plant response rating, Ryegrass, Italian” value [4, 22]?
**A.** 90

**Q.** And the “Ryegrass, Italian plant response rating” value [4, 23]?
**A.** 95

**Q.** And the “Plant response rating, Soybean” value (soybean (Glycine max); [17])?
**A.** 0

**Q.** And the “Plant response rating, Soybean” value (soybean (Glycine max); [18])?
**A.** 0

**Q.** And the “Plant response rating, Soybean” value (soybean (Glycine max); [19])?
**A.** 5

**Q.** And the “Plant response rating, Soybean” value (soybean (Glycine max); [20])?
**A.** 0

**Q.** And the “Plant response rating, Soybean” value (soybean (Glycine max); [21])?
**A.** 0

**Q.** What about the “Plant response rating, Soybean” value (soybean (Glycine max); [22]) of the same compound?
**A.** 20

**Q.** What about the “Plant response rating, Blackgrass” value [5, 17] of the same compound?
**A.** 0

**Q.** And the “Plant response rating, Blackgrass” value [5, 18]?
**A.** 5

**Q.** What about the “Plant response rating, Blackgrass” value [5, 19] of the same compound?
**A.** 15

**Q.** And the “Plant response rating, Blackgrass” value [5, 20]?
**A.** 0

**Q.** What about the “Plant response rating, Blackgrass” value [5, 21] of the same compound?
**A.** 5

**Q.** And the “Plant response rating, Blackgrass” value [5, 22]?
**A.** 5

**Q.** What about the “Blackgrass plant response rating” value [5, 23] of the same compound?
**A.** 10

**Q.** What about the “Blackgrass plant response rating” value [5, 24] of the same compound?
**A.** 0

**Q.** What about the “Plant response rating, Ragweed” value [6, 17] of the same compound?
**A.** 90

**Q.** And the “Plant response rating, Ragweed” value [6, 18]?
**A.** 98

**Q.** What about the “Plant response rating, Ragweed” value [6, 19] of the same compound?
**A.** 100

**Q.** And the “Plant response rating, Ragweed” value [6, 20]?
**A.** 55

**Q.** And the “Plant response rating, Ragweed” value [6, 21]?
**A.** 75

**Q.** And the “Plant response rating, Ragweed” value [6, 22]?
**A.** 95

**Q.** What about the “Ragweed plant response rating” value [6, 23] of the same compound?
**A.** 98

**Q.** What about the “Plant response rating, Lambsquarters” value [7, 17] of the same compound?
**A.** 95

**Q.** What about the “Plant response rating, Lambsquarters” value [7, 18] of the same compound?
**A.** 100

**Q.** And the “Plant response rating, Lambsquarters” value [7, 19]?
**A.** 100

**Q.** And the “Plant response rating, Lambsquarters” value [7, 20]?
**A.** 90

**Q.** What about the “Plant response rating, Lambsquarters” value [7, 21] of the same compound?
**A.** 98

**Q.** And the “Plant response rating, Lambsquarters” value [7, 22]?
**A.** 90

**Q.** And the “Lambsquarters plant response rating” value [7, 23]?
**A.** 95

**Q.** And the “Plant response rating, Crabgrass, Large” value [8, 17]?
**A.** 10

**Q.** And the “Plant response rating, Crabgrass, Large” value [8, 18]?
**A.** 20

**Q.** What about the “Plant response rating, Crabgrass, Large” value [8, 19] of the same compound?
**A.** 25

**Q.** What about the “Plant response rating, Crabgrass, Large” value [8, 20] of the same compound?
**A.** 0

**Q.** What about the “Plant response rating, Crabgrass, Large” value [8, 21] of the same compound?
**A.** 5

**Q.** What about the “Plant response rating, Crabgrass, Large” value [8, 22] of the same compound?
**A.** 75

**Q.** And the “Crabgrass, Large plant response rating” value [8, 23]?
**A.** 80

**Q.** What about the “Crabgrass, Large plant response rating” value [8, 24] of the same compound?
**A.** 20

**Q.** And the “Plant response rating, Nutsedge, Yellow” value [9, 17]?
**A.** 10

**Q.** And the “Plant response rating, Nutsedge, Yellow” value [9, 18]?
**A.** 25

**Q.** What about the “Plant response rating, Nutsedge, Yellow” value [9, 19] of the same compound?
**A.** 35

**Q.** What about the “Plant response rating, Nutsedge, Yellow” value [9, 20] of the same compound?
**A.** 10

**Q.** And the “Plant response rating, Nutsedge, Yellow” value [9, 21]?
**A.** 40

**Q.** What about the “Plant response rating, Nutsedge, Yellow” value [9, 22] of the same compound?
**A.** 65

**Q.** And the “Nutsedge, Yellow plant response rating” value [9, 23]?
**A.** 95

**Q.** What about the “Plant response rating, Waterhemp” value [10, 17] of the same compound?
**A.** 25

**Q.** And the “Plant response rating, Waterhemp” value [10, 18]?
**A.** 55

**Q.** And the “Plant response rating, Waterhemp” value [10, 19]?
**A.** 45

**Q.** What about the “Plant response rating, Waterhemp” value [10, 20] of the same compound?
**A.** 50

**Q.** And the “Plant response rating, Waterhemp” value [10, 21]?
**A.** 75

**Q.** And the “Plant response rating, Waterhemp” value [10, 22]?
**A.** 65

**Q.** What about the “Waterhemp plant response rating” value [10, 23] of the same compound?
**A.** 80

**Q.** And the “Plant response rating, Johnsongrass” value [11, 17]?
**A.** 5

**Q.** What about the “Plant response rating, Johnsongrass” value [11, 18] of the same compound?
**A.** 5

**Q.** What about the “Plant response rating, Johnsongrass” value [11, 19] of the same compound?
**A.** 15

**Q.** And the “Plant response rating, Johnsongrass” value [11, 20]?
**A.** 0

**Q.** What about the “Plant response rating, Johnsongrass” value [11, 21] of the same compound?
**A.** 0

**Q.** What about the “Plant response rating, Johnsongrass” value [11, 22] of the same compound?
**A.** 0

**Q.** And the “Johnsongrass plant response rating” value [11, 23]?
**A.** 0

**Q.** And the “Plant response rating, Wheat” value [12, 17]?
**A.** 0

**Q.** What about the “Plant response rating, Wheat” value [12, 18] of the same compound?
**A.** 5

**Q.** What about the “Plant response rating, Wheat” value [12, 19] of the same compound?
**A.** 15

**Q.** What about the “Plant response rating, Wheat” value [12, 20] of the same compound?
**A.** 0

**Q.** What about the “Plant response rating, Wheat” value [12, 21] of the same compound?
**A.** 0

**Q.** And the “Plant response rating, Wheat” value [12, 22]?
**A.** 5

**Q.** What about the “Wheat plant response rating” value [12, 23] of the same compound?
**A.** 35

**Q.** And the “Plant response rating, Oilseed Rape” value [13, 17]?
**A.** 15

**Q.** What about the “Plant response rating, Oilseed Rape” value [13, 18] of the same compound?
**A.** 40

**Q.** What about the “Plant response rating, Oilseed Rape” value [13, 19] of the same compound?
**A.** 80

**Q.** What about the “Plant response rating, Oilseed Rape” value [13, 20] of the same compound?
**A.** 30

**Q.** And the “Plant response rating, Oilseed Rape” value [13, 21]?
**A.** 98

**Q.** What about the “Plant response rating, Oilseed Rape” value [13, 22] of the same compound?
**A.** 100

**Q.** And the “Oilseed Rape plant response rating” value [13, 23]?
**A.** 100

— patent US10597388B2, “Pyridazinone herbicides” (FMC CORPORATION, priority 2014, dated 2020)
